Test results as given in patent US20140045823A1 (Neurocrine Biosciences, Inc., priority 2012, published 2014).

Each compound was assayed against T1, human GPR119 (Homo sapiens, UniProt Q8TDV5) (assay: AlphaScreen cAMP assay in MIN6 cells stably transfected with human GPR119). Settings: Min-6/hGPR119 cells, 45 min at room temperature.
T1 construct: expression vector for human GPR119 cDNA (Acc. No. NP_848566); expressed in transfected cells; Min-6/hGPR119
T1 sequence (Q8TDV5 1-335): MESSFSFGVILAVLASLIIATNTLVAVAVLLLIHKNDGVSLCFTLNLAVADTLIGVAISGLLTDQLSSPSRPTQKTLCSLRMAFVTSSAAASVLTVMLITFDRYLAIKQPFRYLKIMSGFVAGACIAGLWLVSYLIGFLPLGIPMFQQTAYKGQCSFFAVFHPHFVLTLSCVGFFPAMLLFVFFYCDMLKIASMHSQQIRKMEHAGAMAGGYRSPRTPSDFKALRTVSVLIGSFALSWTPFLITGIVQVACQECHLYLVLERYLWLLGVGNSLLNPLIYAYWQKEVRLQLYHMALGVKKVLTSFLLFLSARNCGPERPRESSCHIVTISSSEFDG
Assay type: cell-based
Summary of the method: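 cAMP accumulation quantified by AlphaScreen after 45 min compound stimulation at about 20 °C. Stimulation buffer: pH 7.4 HEPES saline with 0.5 mM IBMX, 0.1% BSA, 1% DMSO final. Cells: MIN6 stably transfected with human GPR119, 10000/well, cultured 24 h beforehand.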

| EC50 [nM] | SMILES |
| --- | --- |
| 176 | CC(C)(C)OC(=O)N1CCC(N(C(=O)c2cnc(-c3ccc(S(C)(=O)=O)cc3F)o2)C2CC2)CC1 [Example 30, 4-{Cyclopropyl-[2-(2-fluoro-4-methanesulfonyl-phenyl)-oxazole-5-carbonyl]-amino}-piperidine-1-carboxylic acid tert-butyl ester] |
| 140 | CC(C)(C)OC(=O)N1CCC(N(C(=O)c2cnc(-c3ccc(N4CCOCC4)cc3)nc2)C2CC2)CC1 [Example 84, 4-{Cyclopropyl-[2-(4-morpholin-4-yl-phenyl)-pyrimidine-5-carbonyl]-amino}-piperidine-1-carboxylic acid tert-butyl ester] |
| 7 | CC(C)(C)OC(=O)N1CCC(N(C(=O)c2cc(-c3ccc(C#N)c(F)c3)on2)C2CC2)CC1 [Example 40, 4-{[5-(4-Cyano-3-fluoro-phenyl)-isoxazole-3-carbonyl]-cyclopropyl-amino}-piperidine-1-carboxylic acid tert-butyl ester] |
| 149 | CC(C)(C)OC(=O)N1CCC(N(C(=O)c2cnc(-c3ccc(CC(=O)N4CC(F)(F)C4)cc3)nc2)C2CC2)CC1 [Example 184, 4-[Cyclopropyl-(2-{4-[2-(3,3-difluoro-azetidin-1-yl)-2-oxo-ethyl]-phenyl}-pyrimidine-5-carbonyl)-amino]-piperidine-1-carboxylic acid tert-butyl ester] |
| 141 | CC(C)(C)OC(=O)N1CCC(N(C(=O)c2cnc(-c3ccc(C(=O)Nc4cccc(CO)c4)c(F)c3)nc2)C2CC2)CC1 [Example 110, 4-(Cyclopropyl-{2-[3-fluoro-4-(3-hydroxymethyl-phenylcarbamoyl)-phenyl]-pyrimidine-5-carbonyl}-amino)-piperidine-1-carboxylic acid tert-butyl ester] |
| 1800 | CC(C)(C)OC(=O)N1CCC(N(C(=O)c2coc(-c3cnco3)n2)C2CC2)CC1 [Example 27, 4-[([2,5′]Bioxazolyl-4-carbonyl)-cyclopropyl-amino]-piperidine-1-carboxylic acid tert-butyl ester] |
| 390 | COCc1sc(NC(=O)c2ccc(-c3ncc(C(=O)N(C4CC4)C4CCN(C(=O)OC(C)(C)C)CC4)cn3)cc2)nc1C [Example 185, 4-(Cyclopropyl-{2-[4-(5-methoxymethyl-4-methyl-thiazol-2-ylcarbamoyl)-phenyl]-pyrimidine-5-carbonyl}-amino)-piperidine-1-carboxylic acid tert-butyl ester] |
| 1170 | CC(C)(C)OC(=O)N1CCC(N(C(=O)c2cc(-c3ccc([N+](=O)[O-])cc3)[nH]n2)C2CC2)CC1 [Example 65, 4-{Cyclopropyl-[5-(4-nitro-phenyl)-1H-pyrazole-3-carbonyl]-amino}-piperidine-1-carboxylic acid tert-butyl ester] |
| 593 | CC(C)(C)OC(=O)N1CCC(N(C(=O)c2cnc(-c3ccc(C(=O)N4CCCC4CO)cc3)nc2)C2CC2)CC1 (stereo not drawn) [Example 242, 4-(Cyclopropyl-{2-[4-(2-hydroxymethyl-pyrrolidine-1-carbonyl)-phenyl]-pyrimidine-5-carbonyl}-amino)-piperidine-1-carboxylic acid tert-butyl ester] |
| 159 | CC(C)(C)OC(=O)N1CCC(N(C(=O)c2coc(-c3ccc(S(C)(=O)=O)c(F)c3)n2)C2CC2)CC1 [Example 28, 4-{Cyclopropyl-[2-(3-fluoro-4-methanesulfonyl-phenyl)-oxazole-4-carbonyl]-amino}-piperidine-1-carboxylic acid tert-butyl ester] |
| 171 | CN(CC1CCOC1)C(=O)c1ccc(-c2ncc(C(=O)N(C3CC3)C3CCN(C(=O)OC(C)(C)C)CC3)cn2)cc1 (stereo not drawn) [Example 202, 4-[Cyclopropyl-(2-{4-[methyl-(tetrahydro-furan-3-ylmethyl)-carbamoyl]-phenyl}-pyrimidine-5-carbonyl)-amino]-piperidine-1-carboxylic acid tert-butyl ester] |
| 142 | CC(C)(C)OC(=O)N1CCC(N(C(=O)c2ncc(-c3ccc(C#N)cc3)o2)C2CC2)CC1 [Example 37, 4-{[5-(4-Cyano-phenyl)-oxazole-2-carbonyl]-cyclopropyl-amino}-piperidine-1-carboxylic acid tert-butyl ester] |
| 21 | CC(C)(C)OC(=O)N1CCC(N(C(=O)c2noc(-c3ccc(S(C)(=O)=O)cc3F)n2)C2CC2)CC1 [Example 19, 4-{Cyclopropyl-[5-(2-fluoro-4-methanesulfonyl-phenyl)-[1,2,4]oxadiazole-3-carbonyl]-amino}-piperidine-1-carboxylic acid tert-butyl ester] |
| 550 | CC(C)(C)OC(=O)N1CCC(N(C(=O)c2cnc(-c3ccc(CC(=O)Nc4cccc(CO)c4)cc3)nc2)C2CC2)CC1 [Example 217, 4-[Cyclopropyl-(2-{4-[(3-hydroxymethyl-phenylcarbamoyl)-methyl]-phenyl}-pyrimidine-5-carbonyl)-amino]-piperidine-1-carboxylic acid tert-butyl ester] |
| 401 | COC(C)CN(C)C(=O)c1ccc(-c2ncc(C(=O)N(C3CC3)C3CCN(C(=O)OC(C)(C)C)CC3)cn2)c(F)c1 (stereo not drawn) [Example 157, 4-[Cyclopropyl-(2-{2-fluoro-4-[(2-methoxy-propyl)-methyl-carbamoyl]-phenyl}-pyrimidine-5-carbonyl)-amino]-piperidine-1-carboxylic acid tert-butyl ester] |
| 548 | CC(C)(C)OC(=O)N1CCC(N(C(=O)c2cnc(-c3ccc(C(=O)N4CCCC(CO)C4)c(F)c3)nc2)C2CC2)CC1 (stereo not drawn) [Example 129, 4-(Cyclopropyl-{2-[3-fluoro-4-(3-hydroxymethyl-piperidine-1-carbonyl)-phenyl]-pyrimidine-5-carbonyl}-amino)-piperidine-1-carboxylic acid tert-butyl ester] |
| 168 | COc1ccc(NC(=O)c2ccc(-c3ncc(C(=O)N(C4CC4)C4CCN(C(=O)OC(C)(C)C)CC4)cn3)c(F)c2)c(OC)c1 [Example 143, 4-(Cyclopropyl-{2-[4-(2,4-dimethoxy-phenylcarbamoyl)-2-fluoro-phenyl]-pyrimidine-5-carbonyl}-amino)-piperidine-1-carboxylic acid tert-butyl ester] |
| 1300 | CC(C)(C)OC(=O)N1CCC(N(C(=O)c2ccc(-c3cnco3)nn2)C2CC2)CC1 [Example 6, 4-[Cyclopropyl-(6-oxazol-5-yl-pyridazine-3-carbonyl)-amino]-piperidine-1-carboxylic acid tert-butyl ester] |
| 98 | CC(C)(C)OC(=O)N1CCC(N(C(=O)c2cnc(-c3ccc(CO)cc3)nc2)C2CC2)CC1 [Example 81, 4-{Cyclopropyl-[2-(4-hydroxymethyl-phenyl)-pyrimidine-5-carbonyl]-amino}-piperidine-1-carboxylic acid tert-butyl ester] |
| 157 | COC(=O)c1ccc(-n2cnc(C(=O)N(C3CC3)C3CCN(C(=O)OC(C)(C)C)CC3)c2)c(F)c1 [Example 15, 4-{Cyclopropyl-[1-(2-fluoro-4-methoxycarbonyl-phenyl)-1H-imidazole-4-carbonyl]-amino}-piperidine-1-carboxylic acid tert-butyl ester] |
| 545 | CN(C(=O)c1ccc(-c2ncc(C(=O)N(C3CC3)C3CCN(C(=O)OC(C)(C)C)CC3)cn2)cc1)C1CCCOC1 (stereo not drawn) [Example 222, 4-[Cyclopropyl-(2-{4-[methyl-(tetrahydro-pyran-3-yl)-carbamoyl]-phenyl}-pyrimidine-5-carbonyl)-amino]-piperidine-1-carboxylic acid tert-butyl ester] |
| 360 | CCNC(=O)c1ccc(-c2nc(C(=O)N(C3CC3)C3CCN(C(=O)OC(C)(C)C)CC3)co2)cc1 [Example 26, 4-{Cyclopropyl-[2-(4-ethylcarbamoyl-phenyl)-oxazole-4-carbonyl]-amino}-piperidine-1-carboxylic acid tert-butyl ester] |
| 193 | COCC(C)NC(=O)c1ccc(-c2ncc(C(=O)N(C3CC3)C3CCN(C(=O)OC(C)(C)C)CC3)cn2)cc1F (stereo not drawn) [Example 130, 4-(Cyclopropyl-{2-[3-fluoro-4-(2-methoxy-1-methyl-ethylcarbamoyl)-phenyl]-pyrimidine-5-carbonyl}-amino)-piperidine-1-carboxylic acid tert-butyl ester] |
| 15 | CC(C)(C)OC(=O)N1CCC(N(C(=O)c2cnc(-c3ccc(C#N)nc3)nc2)C2CC2)CC1 [Example 83, 4-{[2-(6-Cyano-pyridin-3-yl)-pyrimidine-5-carbonyl]-cyclopropyl-amino}-piperidine-1-carboxylic acid tert-butyl ester] |
| 338 | CO[C@@H]1CCN(C(=O)c2ccc(-c3ncc(C(=O)N(C4CC4)C4CCN(C(=O)OC(C)(C)C)CC4)cn3)cc2)C1 [Example 179, 4-(Cyclopropyl-{2-[4-(3-methoxy-pyrrolidine-1-carbonyl)-phenyl]-pyrimidine-5-carbonyl}-amino)-piperidine-1-carboxylic acid tert-butyl ester] |
| 204 | CC(C)(C)OC(=O)N1CCC(N(C(=O)c2ccc(-c3cn[nH]c3)nc2)C2CC2)CC1 [Example 3, 4-{Cyclopropyl-[6-(1H-pyrazol-4-yl)-pyridine-3-carbonyl]-amino}-piperidine-1-carboxylic acid tert-butyl ester] |
| 489 | CC(C)(C)OC(=O)N1CCC(N(C(=O)c2cnc(-c3cccnc3)nc2)C2CC2)CC1 [Example 70, 4-[Cyclopropyl-(2-pyridin-3-yl-pyrimidine-5-carbonyl)-amino]-piperidine-1-carboxylic acid tert-butyl ester] |
